# Patent US20250339402A1, “EFFECTIVE MEANS TO MODULATE NMDA RECEPTOR-MEDIATED TOXICITY” (FUNDAMENTAL PHARMA GMBH, priority 2022, published 2025)
# Counter-ions that a name gives are not always drawn.
# System: Primary mouse hippocampal neurons
# Assay: Excitotoxic (glutamate/NMDA-induced) cell death in primary neuronal cultures, protection index
# Format: cell-based
# Conditions: Mus musculus, Hippocampal neuron; third subset; excitotoxic cell death in primary neuronal cultures
# Protocol: Primary mouse hippocampal neurons were prepared as previously described (Bading & Greenberg, Science, 1991; 253: 912-914; Zhang et al, Neuron, 2007, 53: 549-562) and maintained in Neurobasal-A medium supplemented with 2% B27, 5 mM L-Glutamax, and 0.5% Penicillin/Streptomycin until challenged with NMDA on days in vitro (DIV) 10. Glutamate-induced cell death was analyzed in a real-time manner by monitoring nuclear localized mCherry with IncuCyte® S3 Live-Cell Analysis System (Sartorius AG, Germany). Primary neurons plated in 24 well plates were infected with rAAV-hSyn-mCherry on DIV3 and challenged with 1 μM or 20 μM glutamate on DIV10. All compounds were added to the culture 30 min prior to glutamate/NMDA insult. Images were acquired following the glutamate application for 24 h with a 2 h interval, where 9-16 images were obtained via a 20×objective for each condition at each time point. Cell deaths were quantified by analyzing the existence of nuclear localized mCheery via the Basic Analyzer with Incucyte® 2021 software, size and average intensity were used as exclusion criteria.
# In order to evaluate the protective effects of various compounds, a quantification method was developed to determine each compound's protection index. The protection index (from 0.0 to 10.0) was calculated by the area above the curve (AAC) during a 24 h excitotoxic stimuli, where the cell survival was normalized to the 0 h (FIG. 2), following the equation: […]
# Where AAC represents for each compound, AACbasal represents for the basal condition without excitotoxic insult, AACVeh represents for the vehicle control with excitotoxic insult. Based on the equation, vehicle (DMSO) has a protection index at 0.0 and compound P401 of WO 2020/079244 has a protection index at 6.0 (at 10 μM).
# The inventors also performed experiments with Group A compounds at lower concentration in a 3-fold dilution matter ([…]: 3.0, 1.0, 0.3, 0.1, 0.03) and were able to achieve a similar protection effect as 10 μM compound P401, but at a lower concentration.
row,SMILES,IC50 [nM]
1,CC(c1c(F)cccc1Cl)N(CCN)C1CC1 (stereo not drawn) [Compound 186],800
2,CC(c1c(F)ccc(Cl)c1F)N(CCN)C1CC1.Cl (stereo not drawn) [Compound 187],2000
3,NCCN(C1CC1)C(c1cccc(Cl)c1F)C1CC1 (stereo not drawn) [Compound 190],110
4,"CC(c1cccc(Br)c1F)N(CCN)C1CC1 (stereo not drawn) [Compound 191, N^1-(1-(3-bromo-2-fluorophenyl)ethyl)-N^1-cyclopropylethane-1,2-diamine hydrochloride]",230

# Same assay, conditions: first subset; protection index from area above curve over 24 h glutamate/NMDA insult; compounds added 30 min before; 10 μM, Group A also at lower concentrations
row,SMILES,Biological Activity Rating
1,CCN(CCN)Cc1cccc(Cl)c1F [Compound 91],"A (With a protection index over 7.0, provides a significantly better protection over compound P401 (10 μM) at 10 μM.)"
2,CCN(CCN)Cc1c(F)ccc(Cl)c1F [Compound 92],"A (With a protection index over 7.0, provides a significantly better protection over compound P401 (10 μM) at 10 μM.)"
3,CCN(CCN)Cc1cc(F)cc(Cl)c1 [Compound 94],"B (With a protection index between 5.0 to 7.0, provides a comparable protection to compound P401 (10 μM) at 10 μM.)"
4,CCN(CCN)Cc1cc(Cl)ccc1F [Compound 95],"B (With a protection index between 5.0 to 7.0, provides a comparable protection to compound P401 (10 μM) at 10 μM.)"
5,"NCCN(Cc1cccc(Cl)c1F)CC(F)F [Compound 118, N1-(3-chloro-2-fluorobenzyl)-N1-(2,2-difluoroethyl)ethane-1,2-diamine]","C (With a protection index between 3.0 to 5.0, provides a significantly lower protection compared to compound P401 (10 μM) at 10 μM.)"
6,"NCCN(Cc1cccc(Cl)c1F)CC(F)(F)F [Compound 119, N1-(3-chloro-2-fluorobenzyl)-N1-(2,2,2-trifluoroethyl)ethane-1,2-diamine]","A (With a protection index over 7.0, provides a significantly better protection over compound P401 (10 μM) at 10 μM.)"
7,"NCCN(Cc1cccc(Cl)c1)C1CCC1 [Compound 123, N1-(3-chlorobenzyl)-N1-cyclobutylethane-1,2-diamine hydrochloride]","B (With a protection index between 5.0 to 7.0, provides a comparable protection to compound P401 (10 μM) at 10 μM.)"
8,NCCN(Cc1cccc(Cl)c1)C1CCCCC1 [Compound 124],"B (With a protection index between 5.0 to 7.0, provides a comparable protection to compound P401 (10 μM) at 10 μM.)"
9,CSCCN(CCN)Cc1cccc(Cl)c1 [Compound 126],"B (With a protection index between 5.0 to 7.0, provides a comparable protection to compound P401 (10 μM) at 10 μM.)"
10,NCCN(Cc1cccc(Cl)c1)CC1CC1 [Compound 134],"B (With a protection index between 5.0 to 7.0, provides a comparable protection to compound P401 (10 μM) at 10 μM.)"
11,NCCN(Cc1cccc(Cl)c1)CC1CCC1 [Compound 135],"B (With a protection index between 5.0 to 7.0, provides a comparable protection to compound P401 (10 μM) at 10 μM.)"
12,C=CCN(CCN)Cc1cccc(Cl)c1 [Compound 136],"A (With a protection index over 7.0, provides a significantly better protection over compound P401 (10 μM) at 10 μM.)"
13,"C=CCC(=O)N(CCN)Cc1cccc(Cl)c1 [Compound 137, N-(2-aminoethyl)-N-[(3-chlorophenyl)methyl]but-3-enamide hydrochloride]","A (With a protection index over 7.0, provides a significantly better protection over compound P401 (10 μM) at 10 μM.)"
14,NCCN(Cc1cccc(Cl)c1F)CC1CC1 [Compound 153],"C (With a protection index between 3.0 to 5.0, provides a significantly lower protection compared to compound P401 (10 μM) at 10 μM.)"
15,"NCCN(Cc1cccc(Cl)c1F)C1CCC1 [Compound 159, N1-(3-chloro-2-fluorobenzyl)-N1-cyclobutylethane-1,2-diamine dihydrochloride]","A++ (With a protection index between 5.0 to 7.0, provides a comparable protection to compound P401 (10 μM) at 1.0 μM.)"
16,C=CCN(CCN)Cc1cccc(Cl)c1F [Compound 160],"A (With a protection index over 7.0, provides a significantly better protection over compound P401 (10 μM) at 10 μM.)"
17,"CCN(CCN)Cc1cccc(C#N)c1F [Compound 175, 3-(((2-aminoethyl)(ethyl)amino)methyl)-2-fluorobenzonitrile TFA salt]","A+ (With a protection index between 5.0 to 7.0, provides a comparable protection to compound P401 (10 μM) at 3.0 μM.)"
18,CCN(CCN)Cc1cccc(Br)c1F [Compound 175A],"A (With a protection index over 7.0, provides a significantly better protection over compound P401 (10 μM) at 10 μM.)"

# Same assay, conditions: second subset; protection index from area above curve over 24 h glutamate/NMDA insult; compounds added 30 min before; 10 μM, Group A also at lower concentrations
row,SMILES,Biological Activity Rating
1,"CC(c1cccc(Cl)c1F)N(CCN)C1CC1 (single isomer, unassigned; (+)) [Compound 220A, (+)-N1-(1-(3-chloro-2-fluorophenyl)ethyl)-N1-cyclopropylethane-1,2-diamine]","A++ (With a protection index between 5.0 to 7.0, provides a comparable protection to compound P401 (10 μM) at 1.0 μM.)"
2,"CC(c1cccc(Cl)c1F)N(CCN)C1CC1 (single isomer, unassigned; (-)) [Compound 220B, (−)-N1-(1-(3-chloro-2-fluorophenyl)ethyl)-N1-cyclopropylethane-1,2-diamine]","A++++ (With a protection index between 5.0 to 7.0, provides a comparable protection to compound P401 (10 μM) at 0.1 μM.)"
3,CCN(CCN)C(C)c1cccc(Cl)c1 (stereo not drawn) [Compound 109],"A (With a protection index over 7.0, provides a significantly better protection over compound P401 (10 μM) at 10 μM.)"
4,"CSCCN(CCN)C(C)c1cccc(Cl)c1F (stereo not drawn) [Compound 169, N1-(2-(methylthio)ethyl)-N1-(1-(3-chloro-2-fluorophenyl)ethyl) ethane-1,2-diamine]","B (With a protection index between 5.0 to 7.0, provides a comparable protection to compound P401 (10 μM) at 10 μM.)"
5,"C=CCN(CCN)C(C)c1cccc(Cl)c1F (stereo not drawn) [Compound 172, N1-allyl-N1-(1-(3-chloro-2-fluorophenyl)ethyl)ethane-1,2-diamine hydrochloride]","A++ (With a protection index between 5.0 to 7.0, provides a comparable protection to compound P401 (10 μM) at 1.0 μM.)"
6,"CCN(CCN)[C@H](C)c1cccc(Cl)c1 [Compound 176, (R)—N1-(1-(3-chlorophenyl)ethyl)-N1-ethylethane-1,2-diamine dihydrochloride]","A (With a protection index over 7.0, provides a significantly better protection over compound P401 (10 μM) at 10 μM.)"
7,"CCN(CCN)[C@@H](C)c1cccc(Cl)c1 [Compound 177, (S)—N1-(1-(3-chlorophenyl)ethyl)-N1-ethylethane-1,2-diamine dihydrochloride]","A (With a protection index over 7.0, provides a significantly better protection over compound P401 (10 μM) at 10 μM.)"
8,"CC(c1cccc(Cl)c1F)N(CCN)C1CCC1 (stereo not drawn) [Compound 180, N1-(cyclobutyl)-N1-(1-(3-chloro-2-fluorophen, l)ethyl)ethane-1,2-diamine hydrochloride]","A++ (With a protection index between 5.0 to 7.0, provides a comparable protection to compound P401 (10 μM) at 1.0 μM.)"
9,"CC(c1cccc(Cl)c1F)N(CCN)C12CC(C1)C2 (stereo not drawn) [Compound 182, N1-(bicyclo[1.1.1]pentan-1-yl)-N1-(1-(3-chloro-2-fluorophenyl)ethyl)ethane-1,2-diamine hydrochloride]","A+ (With a protection index between 5.0 to 7.0, provides a comparable protection to compound P401 (10 μM) at 3.0 μM.)"
10,"CC(c1cccc(Cl)c1F)N(CCN)C1CCCC1 (stereo not drawn) [Compound 184, N1-(1-(3-chloro-2-fluorophenyl)ethyl)-N1-cyclopentylethane-1,2-diamine dihydrochloride]","A (With a protection index over 7.0, provides a significantly better protection over compound P401 (10 μM) at 10 μM.)"
11,"CC(c1cc(Cl)ccc1Cl)N(CCN)C1CC1 (stereo not drawn) [Compound 185, N1-(cyclopropyl)-N1-(1-(2,5-dichlorophenyl)ethyl)ethane-1,2-diamine hydrochloride]","A++ (With a protection index between 5.0 to 7.0, provides a comparable protection to compound P401 (10 μM) at 1.0 μM.)"
12,"CC(c1cc(F)cc(F)c1Cl)N(CCN)C1CC1 (stereo not drawn) [Compound 188, N′-[1-(2-chloro-3,5-difluoro-phenyl)ethyl]-N′-cyclopropyl-ethane-1,2-diamine hydrochloride]","A++ (With a protection index between 5.0 to 7.0, provides a comparable protection to compound P401 (10 μM) at 1.0 μM.)"

# Same assay, conditions: third subset; A++++ or above correlates with IC50; A++ and A+++ as defined in the source
row,SMILES,Biological Activity Rating
1,CC(c1c(F)cccc1Cl)N(CCN)C1CC1 (stereo not drawn) [Compound 186],A+++
2,CC(c1c(F)ccc(Cl)c1F)N(CCN)C1CC1.Cl (stereo not drawn) [Compound 187],A++
